Results reported in patent publication EP4241766A1, “USE OF OLFACTORY RECEPTOR OR13A1 LIGANDS IN THE TREATMENT OF LYMPHOMAS” (Fondazione Per L'Istituto Oncologico Di Ricerca (IOR), priority 2022, dated 2023).

Columns and labels:
U2932 DLBCL cell line = test: Growth/viability of U2932 cells with doxycycline-inducible shRNA system targeting OR13A1; type: cell-based
Excerpt: • Figure 1. Expression of OR13A1 across lymphoma cell lines as measured by RNA-Seq. A) Heatmap is based on log2 CPM (counts per million). Scale ranges from low (white) to high expression (black). Each horizontal represents the value for one cell line. GCB DLBCL, diffuse large B-cell lymphoma of the germinal center B-cell-type; ABC DLBCL, diffuse large B-cell lymphoma of the activated B-cell-like; MCL, mantle cell lymphoma; MZL, marginal zone lymphoma; CLL, chronic lymphocytic leukemia; PMBCL, primary mediastinal large B-cell lymphoma; BL, Burkitt lymphoma. B) OR13A1 expression level by cell of origin in DLBCL cell lines, the expression was higher in cells derived from germinal center (GC) B-cell type (GCB) than activated B cell like (ABC) DLBCL (P value = 0.03). • Figure 2. OR13A1 silencing is associated with reduction in cell viability of DLBCL cells. Left panel, real-time PCR showing reduction of OR13A1 72h after siRNA treatment. Right panel, Reduction of cell viability, measured with MTT, in DLBCL cells after gene silencing. • Figure 3. Homology model of OR13A1 with two ligands. A) cyclohexanone docked onto the orthosteric binding site. B) tyramine docked onto the orthosteric binding site. Residues identified in the model to interact with the tyramine, potentially relevant for the receptor activation, are shown in sticks, D221 and T297. • Figure 4. […] Experiments were done using U2932 cells with the doxycycline-inducible shRNA system, exposed or not to cyclohexanone (25µM). The red arrow indicates the addition of cyclohexanone. CH, cyclohexanone; sh1, doxycycline-inducible shRNA targeting OR13A1; shCNT, scramble doxycycline-inducible shRNA.
Cellular experiments followed with cyclohexanone and, among the predicted ligands, tyramine using the U2932 DLBCL cell line with the doxycycline-inducible shRNA system.

Olfr1484 = settings: experimentally demonstrated, reference [52]; cited from earlier work
Olfr211 = molecular target: T1, Olfr211 (Mus musculus, UniProt Q8VGH2); settings: experimentally demonstrated, reference [52]; cited from earlier work
T1 sequence (Q8VGH2 1-309): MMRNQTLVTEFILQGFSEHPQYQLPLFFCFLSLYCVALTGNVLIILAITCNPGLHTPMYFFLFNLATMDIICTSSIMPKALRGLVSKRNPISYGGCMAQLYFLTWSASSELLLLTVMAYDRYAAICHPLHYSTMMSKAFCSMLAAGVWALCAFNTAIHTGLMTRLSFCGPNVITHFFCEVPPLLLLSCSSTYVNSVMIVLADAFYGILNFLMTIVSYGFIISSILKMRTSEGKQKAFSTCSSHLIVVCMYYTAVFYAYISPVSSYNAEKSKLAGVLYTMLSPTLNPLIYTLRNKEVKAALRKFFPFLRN

SMILES | lymphoma cell viability (U2932 DLBCL cell line; U2932, in the presence of the GPCR (OR13A1), Figure 4) | effect on growth of DLBCL cells (U2932 DLBCL cell line; U2932 cells, cyclohexanone 25µM, absence of OR13A1 (sh1), Figure 4) | growth of DLBCL cells (U2932 DLBCL cell line; U2932 cells, cyclohexanone 25µM, Figure 4) | ligand of Olfr1484 (Olfr1484) | ligand of Olfr211 (Olfr211) | lymphoma cell line growth (U2932 DLBCL cell line; U2932 DLBCL cell line, doxycycline-inducible shRNA system)
O=C1CCCCC1 [cyclohexanone] | decreased the lymphoma cell viability in the presence | The absence of OR13A1 abrogates the effect | reduces the growth of DLBCL cells | ligand | ligand | 
NCCc1ccc(O)cc1 [tyramine] |  |  |  |  |  | increased lymphoma cell line growth
